Assay results reported in US10450297B2, “Sulfonyl amide derivatives for the treatment of abnormal cell growth” (Pfizer, Inc., priority 2007, dated 2019).

Target: FAK kinase (catalytic construct FAK(410-689)) (Homo sapiens (Human), UniProt Q05397)
Test: FAKcd kinase ELISA (inhibition of poly-glu-tyr phosphorylation by FAK(410-689))
Assay type: biochemical
Conditions: 50 μM final ATP

Chain of FAK kinase (catalytic construct FAK(410-689)) (Q05397 410-689): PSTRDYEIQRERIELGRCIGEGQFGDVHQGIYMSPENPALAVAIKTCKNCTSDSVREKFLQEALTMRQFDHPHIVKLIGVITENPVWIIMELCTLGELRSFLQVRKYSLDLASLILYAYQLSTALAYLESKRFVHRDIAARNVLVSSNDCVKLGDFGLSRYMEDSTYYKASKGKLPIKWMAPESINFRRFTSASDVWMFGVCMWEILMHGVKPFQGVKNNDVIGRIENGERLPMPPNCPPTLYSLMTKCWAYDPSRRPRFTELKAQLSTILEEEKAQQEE

SMILES | IC50 [nM]
CN(c1ncccc1CNc1nc(Nc2ccc(C(=O)NC[C@@H]3C[C@H]3CO)cc2)ncc1C(F)(F)F)S(C)(=O)=O [Compound 273, N-{[(1R,2R)-2-(hydroxymethyl)cyclopropyl}methyl}-4-({4-[({2-[methyl(methylsulfonyl)amino]pyridin-3-yl}methyl)amino]-5-(trifluoromethyl)pyrimidin-2-yl}amino)benzamide] | 2.69
CN(C)CCN(C)C(=O)c1ccc(Nc2ncc(C(F)(F)F)c(NCc3cccnc3N(C)S(C)(=O)=O)n2)cc1 [Compound 274, N-[2-(dimethylamino)ethyl]-N-methyl-4-({4-[({2-[methyl(methylsulfonyl)amino]pyridin-3-yl}methyl)amino]-5-(trifluoromethyl)pyrimidin-2-yl}amino)benzamide] | 4.66
CN(c1ncccc1CNc1nc(Nc2ccc(C(=O)N3CCC[C@@H](O)C3)cc2)ncc1C(F)(F)F)S(C)(=O)=O [Compound 275, N-{3-[({2-[(4-{[(3R)-3-hydroxypiperidin-1-yl]carbonyl}phenyl)amino]-5-(trifluoromethyl)pyrimidin-4-yl}amino)methyl]pyridin-2-yl}-N-methylmethane-sulfonamide] | 2.36
COCCNC(=O)c1ccc(Nc2ncc(C(F)(F)F)c(NCc3cccnc3N(C)S(C)(=O)=O)n2)cc1 [Compound 276, N-(2-methoxyethyl)-4-({4-[({2-[methyl(methylsulfonyl)amino]pyridin-3-yl}methyl)amino]-5-(trifluoromethyl)pyrimidin-2-yl}amino)benzamide] | 0.6
COCCCN(C)C(=O)c1ccc(Nc2ncc(C(F)(F)F)c(NCc3cccnc3N(C)S(C)(=O)=O)n2)cc1 [Compound 277, N-(3-methoxypropyl)-N-methyl-4-({4-[({2-[methyl(methylsulfonyl)amino]pyridin-3-yl}methyl)arnino]-5-(trifluoromethyl)pyrimidin-2-yl}amino)benzamide] | 2.36
C[C@@H]1COCCN1C(=O)c1ccc(Nc2ncc(C(F)(F)F)c(NCc3cccnc3N(C)S(C)(=O)=O)n2)cc1 [Compound 278, N-methyl-N-{3-(({2-[(4-{[(3R)-3-methylmorpholin-4-yl]carbonyl}phenyl)amino]-5-(trlfluoromethyl)pyrimidin-4-yl}amino)methyl]pyridin-2-yl]methanesulfonamide] | 6.64
COc1ccc(Nc2ncc(C(F)(F)F)c(NCc3cccnc3N(C)S(C)(=O)=O)n2)cc1 [Compound 280, N-{3-[({2-[(4-methoxyphenyl)amino]-5-(trifluoromethyl)pyrimidin-4-yl}amino)methyl]pyridin-2-yl}-N-methylmethane-sulfonamide] | 0.6
COc1cccc(Nc2ncc(C(F)(F)F)c(NCc3cccnc3N(C)S(C)(=O)=O)n2)c1 [Compound 281, N-{3-[({2-[(3-methoxyphenyl)amino]-5-(trifluoromethyl)pyrimidin-4-yl}amino)methyl]pyridin-2-yl}-N-methylmethane-sulfonamide] | 0.6
CN(c1ncccc1CNc1nc(Nc2cccc(CO)c2)ncc1C(F)(F)F)S(C)(=O)=O [Compound 283, N-[3-({[2-{[3-(hydroxymethyl)phenyl]amino}-5-(trifluoromethyl)pyrimidin-4-yl]amino}methyl)pyridin-2-yl)-N-methylmethane-sulfonamide] | 0.6
CN(c1ncccc1CNc1nc(Nc2ccncc2)ncc1C(F)(F)F)S(C)(=O)=O [Compound 285, N-methyl-N-[3-({[2-(pyridin-4-ylamino)-5-(trifluoromethyl)pyrimidin-4-yl]amino}methyl)pyridin-2-yl]methanesulfonamide] | 1.27
CN(c1ncccc1CNc1nc(Nc2cccc(C#N)c2)ncc1C(F)(F)F)S(C)(=O)=O [Compound 286, N-{3-[({2-[(3-cyanophenyl)amino]-5-(trifluoromethyl)pyrimidin-4-yl}amino)methyl]pyridin-2-yl}-N-methylmethanesulfonamide] | 1.64
CN(c1ncccc1CNc1nc(Nc2ccc(C#N)nc2)ncc1C(F)(F)F)S(C)(=O)=O [Compound 292, N-{3-[({2-[(6-cyanopyridin-3-yl)amino]-5-(trifluoromethyl)pyrimidin-4-yl}amino)methyl]pyridin-2-yl}-N-methylmethane-sulfonamide] | 23.3
CN(c1ncccc1CNc1nc(Nc2ccc(N3CCOCC3)cn2)ncc1C(F)(F)F)S(C)(=O)=O [Compound 293, N-methyl-N-{3-[({2-[(5-morpholin-4-ylpyridin-2-yl)amino]-5-(trifluoromethyl)pyrimidin-4-yl}amino)methyl]pyridin-2-yl]methanesulfonamide] | < 0.595
Cc1ncc(CNc2nc(Nc3cccc(C(N)=O)c3)ncc2C(F)(F)F)c(N(C)S(C)(=O)=O)n1 [Compound 296, 3-({4-[({2-methyl-4-[methyl(methylsulfonyl)amino]pyrimidin-5-yl}methyl)amino]-5-(trifluoromethyl)pyrimidin-2-yl}amino)benzamide] | 3.89
CN(c1nccnc1CNc1nc(Nc2cccc(C(N)=O)c2)ncc1C(F)(F)F)S(C)(=O)=O [Compound 297, 3-({4-[({3-[melhyl(methylsulfonyl)amino]pyrazin-2-yl}methyl)amino]-5-(trifluoromethyl)pyrimidin-2-yl}amino)benzamide] | 2.26
CN(c1ncccc1CNc1nc(Nc2nccc(N)n2)ncc1C(F)(F)F)S(C)(=O)=O [Compound 298, N-{3-[({2-[(4-aminopyrimidin-2-yl)amino]-5-(trifluoromethyl)pyrimidin-4-yl}amino)methyl]pyridin-2-yl}-N-methylmethane-sulfonamide] | 32.8
CN(c1ncccc1CNc1nc(Nc2cccc(CNS(=O)(=O)C(F)(F)F)c2)ncc1C(F)(F)F)S(C)(=O)=O [Compound 303, 1,1,1-trifluoro-N-[3-({4-[({2-[methyl(methylsulfonyl)amino]pyridin-3-yl}methyl)amino]-5-(trifluoromethyl)pyrimidin-2-yl}amino)benzyl]methanesulfonamide] | 0.727
COc1ccc(C(N)=O)cc1Nc1ncc(C(F)(F)F)c(NCc2cccnc2N(C)S(C)(=O)=O)n1 [Compound 304, 4-methoxy-3-({4-[({2-[methyl(methylsulfonyl)amino]pyridin-3-yl}methyl)amino]-5-(trifluoromethyl)pyrimidin-2-yl}amino)benzamide] | 0.777
COc1ccc(C(N)=O)cc1Nc1ncc(C(F)(F)F)c(NCc2ccc(C)nc2N(C)S(C)(=O)=O)n1 [Compound 305, 4-methoxy-3-({4-[({6-methyl-2-[methyl(methylsulfonyl)-amino]pyridin-3-yl}methyl)amino]-5-(trifluoromethyl)pyrimidin-2-yl}amino)benzamide] | 0.646

Next, values leading:

IC50 [nM] | SMILES
3.97 | CN(C)C1CN(C(=O)c2ccc(Nc3ncc(C(F)(F)F)c(NCc4cccnc4N(C)S(C)(=O)=O)n3)cc2)C1 [Compound 279, N-{3-[({2-[(4-{[3-(dimethylamino)azelidin-1-yl]carbonyl}phenyl)amino]-5-(trifluoromethyl)pyrimidin-4-yl}amino)methyl]pyridin-2-yl}-N-methylmethane-sulfonamide]
0.6 | COc1ccc(Nc2ncc(C(F)(F)F)c(NCc3cccnc3N(C)S(C)(=O)=O)n2)cc1OC [Compound 282, N-{3-[({2-[(3,4-dimethoxyphenyl)amino]-5-(trifluoromethyl)pyrimidin-4-yl}amino)methyl]pyridin-2-yl}-N-methylmethane-sulfonamide]
1.83 | CN(c1ncccc1CNc1nc(Nc2ccc(OC(F)(F)F)cc2)ncc1C(F)(F)F)S(C)(=O)=O [Compound 284, N-methyl-N-[3-({[2-{[4-(trifluoromethoxy)phenyl]amino}-5-(trifluoromethyl)pyrimidin-4-yl]amino}rnethyl)pyridin-2-yl]methanesulfonamide]
1.95 | Cc1cccc(NS(C)(=O)=O)c1CNc1nc(Nc2ccc(-c3nnn[nH]3)cc2)ncc1C(F)(F)F [Compound 287, N-[3-methyl-2-({[2-{[4-(1H-tetrazol-5-yl)phenyl]amino}-5-(trifluoromethyl)pyrimidin-4-yl]amino}methyl)phenyl]methanesulfonamide]
18.2 | Cc1cc(Nc2ncc(C(F)(F)F)c(NCc3cccnc3N(C)S(C)(=O)=O)n2)on1 [Compound 289, N-methyl-N-{3-[({2-[(3-methylisoxazol-5-yl)amino)-5-(trifluoromethyl)pyrimidin-4-yl}amino)methyl]pyridin-2-yl}methanesulfonamide]
< 0.595 | CN(c1ncccc1CNc1nc(Nc2ccc(N3CCOCC3)cc2)ncc1C(F)(F)F)S(C)(=O)=O [Compound 291, N-methyl-N-{3-[({2-[(4-morpholin-4-ylphenyl)amino]-5-(trifluoromethyl)pyrimidin-4-yl}amino)methyl]pyridin-2-yl}methanesulfonamide]
< 0.595 | Cc1ccc(CNc2nc(Nc3cccc(C(N)=O)c3)ncc2C(F)(F)F)c(N(C)S(C)(=O)=O)n1 [Compound 294, 3-({4-[({6-methyl-2-[methyl(methylsulfonyl)amino]pyridin-3-yl}methyl)amino]-5-(trifluoromethyl)pyrimidin-2-yl}amino)benzamide]
1.33 | CN(c1cccnc1CNc1nc(Nc2cccc(C(N)=O)c2)ncc1C(F)(F)F)S(C)(=O)=O [Compound 295, 3-({4-[({3-[methyl(methylsulfonyl)amino]pyridin-2-yl}methyl)amino]-5-(trifluoromethyl)pyrimidin-2-yl}amino)benzamide]
> 188 | CN(c1ncccc1CNc1nc(Nc2ccnc(N)n2)ncc1C(F)(F)F)S(C)(=O)=O [Compound 299, N-{3-[({2-[(2-aminopyrimidin-4-yl)amino]-5-(trifluoromethyl)pyrimidin-4-yl}amino)methyl]pyridin-2-yl}-N-methylmethane-sulfonamide]
1 | CN(c1ncccc1CNc1nc(Nc2ccc(CNS(=O)(=O)C(F)(F)F)cc2)ncc1C(F)(F)F)S(C)(=O)=O [Compound 302, 1,1,1-trifluoro-N-[4-({4-[({2-[methyl(methylsulfonyl)amino]pyridin-3-yl}methyl)amino]-5-(trifluoromethyl)pyrimidin-2-yl}amino)benzyl]methanesulfonamide]
